Results from a compilation of properties of binary mixtures (doi:10.1016/j.molliq.2014.09.055).

Assay: xn = mol fraction of the nth substance listed
Settings: 101 kPa

CCC(=O)O + CCOS(=O)(=O)[O-].CC[n+]1ccn(C)c1
speed of sound [m/s]
Settings	293.15 K	298.15 K	303.15 K	308.15 K	313.15 K
x1 = 0.0818	–	1665.8	1653.5	1641.2	1629.1
x1 = 0.1678	1659.4	1647	1634.6	1622.2	1609.9
x1 = 0.2655	1635.9	–	1610.7	–	1585.6
x1 = 0.3539	1611.6	1598.8	1585.9	–	1566
x1 = 0.4224	1590.3	1577.4	1564.4	1551.4	1538.5
x1 = 0.5516	1542.7	1529.4	1515.9	1502.5	1489.2
x1 = 0.6556	1494.8	1481	1467	1453.1	1439.4
x1 = 0.7707	1421.7	1407.2	1392.4	1377.8	1363.3
x1 = 0.8774	1320.2	1304.5	1288.6	1272.8	–
x1 = 0.9405	1240.4	1223.4	1206.2	–	1172.3
x1 = 1	1164.7	1146	1127.1	1108.3	1089.6
